Measurements as given in patent publication US20090324624A1, “Chitin micro-particles as an adjuvant” (priority 2006, published 2009).

Assays:
Format in all cases: cell-based, mouse
IL-10 mRNA = IL-10 mRNA expression in RAW264.7 MØ (RT-PCR)
F4/80 = assay: Surface expression of MØ antigens, cytometry: F4/80; conditions: 5 mM MBCD, 1 hr at 37°
Mac-1 = test system: Mac-1
[1] = test system: Fcγ receptor II/III (FcγR); assay: Surface expression of MØ antigens, cytometry: FcγR; conditions: 5 mM MBCD, 1 hr at 37°
Experimental: For evaluation of phagocytosis, MØ were incubated with 100 μg/ml FITC-chitin particles at 37° C. for 20 or 40 min. Fluorescence of unphagocytosed FITC-chitin was quenched with 50 mM acetate-buffered saline (pH 4.5) containing 2 mg/ml trypan blue, and the fluorescence intensity of MØ with intracellular FITC-chitin particles was measured cytometrically. The presence of intracellular FITC-chitin particles was further confirmed by fluorescence microscopy (Provis AX70 Microscope with MagnaFire, Olympus, Center Valley, Pa.). Expression of F4/80, Mac-1, FcγR, SR-A, TLR4, or MR on MØ was determined cytometrically.
The effect of cholesterol depletion on expression of the selected MØ surface antigens F4/80, Mac-1, FcγR, SR-A, TLR4, and MR was determined. […] The expression of TLR4 and MR were not altered by MBCD. The values for mean fluorescence intensity were consistent with the effects of MBCD on the expression of MØ antigens (Table 3). Therefore, MBCD at 5 mM or less was used for further experiments. All studies of chitin stimulation in the presence of MBCD were terminated within 6 h.

[2] = test system: scavenger receptor A (SR-A); assay: Surface expression of MØ antigens, cytometry: SR-A; conditions: 5 mM MBCD, 1 hr at 37°
[3] = test system: Toll-like receptor 4 (TLR4); assay: Surface expression of MØ antigens, cytometry: TLR4; conditions: 5 mM MBCD, 1 hr at 37°; 2nd antibody control 7.0
mannose receptor (MR) = assay: Surface expression of MØ antigens, cytometry: MR; conditions: 5 mM MBCD, 1 hr at 37°; 2nd antibody control 7.0
RAW 264.7 MØ [4] = assay: Cell-surface binding of FITC-chitin particles; conditions: MBCD-treated vs saline-treated MØ
Experimental: For chitin binding and phagocytosis assays, 1-10 μm chitin particles were labeled with fluorescein isothiocyanate (FITC). Particles (10 mg) and FITC (0.1 mg) were mixed and incubated in 0.1 M NaHCO3 at 22° C. for 2 h. Glycine (final 1 M) was added to bind free FITC, after which labeled particles were washed and suspended in saline at 10 mg/ml. To assess cell-surface binding of chitin, MØ were incubated with 100 μg/ml FITC-chitin particles on ice for 30 min. Free particles were removed by washing three times, and cellular fluorescence was measured cytometrically (BD FACSCalibur system with CELL Quest™ acquisition plus analysis program; Becton-Dickinson Immunocytometry Systems, San Jose, Calif.). To confirm that MØ binding to chitin particles was not altered by FITC, an excess of unlabeled particles (1,000 μg/ml) was used to compete with FITC-chitin.
It was also determined whether cholesterol depletion modifies MØ binding and internalization of FITC-chitin microparticles. […] Internalization of FITC-chitin particles at 37° C. was analyzed following quenching of unphagocytosed FITC-chitin. The magnitude of phagocytosis is similar for MBCD- and saline-treated MØ at 20 min: 12 and 12%, respectively.

RAW 264.7 MØ [5] = assay: TNF-α production by MBCD- or saline-treated MØ (ELISA); conditions: for increase in TNF-α production in response to chitin particles: 1 mM MBCD
COX-2 = COX-2 expression and PGE2 release by MBCD- or saline-treated MØ
[6] = test system: chitin phagosome-associated p38 and ERK1/2; assay: Phagosomal (chitin particle-associated) MAPK phosphorylation; conditions: 10, 20 and 40 min
Experimental: FIG. 14 is a series of photographs of gels showing Phagosomal localization of MAPK proteins. MBCD- and saline-treated MØ were stimulated with 100 μg/ml 1-10 μm chitin particles at 37° C. for 10, 20 or 40 min. Chitin particle-associated proteins were isolated and extracted as described in Example 3. Particle-associated proteins derived from 2×10^6 MØ as well as whole cell proteins were separated on SDS-11% polyacrylamide gel and electroblotted to PVDF membrane. The data shown are representative of two independent experiments.
MBCD- or saline-treated MØ (2×10^6/ml) were stimulated with 100 μg/ml 1-10 μm chitin particles at 37° C. for 10, 20, or 40 min, washed with saline, suspended in homogenization buffer (50 mM Tris-HCl, pH 7.5, 0.32 M sucrose, 10 mM NaF, 1 mM Na3VO4, 5 mM EDTA, 1:500 protease inhibitor cocktail [Sigma]), and homogenized by sonication (20 s). […] Total and phosphorylated p38 and ERK1/2 as well as lysosome-associated membrane protein-1 (LAMP-1) were detected by western blotting with specific antibodies as described above. […]
The extent of phosphorylation of MAPK associated with intracellular chitin particles in MBCD-treated and saline-treated MØ was determined. […] MAPKs p38 and ERK1/2 and the respective phosphorylated forms were detected in the particle-associated fractions at 10, 20 and 40 min (FIG. 14). […] Phosphorylated JNK was not detected in the particle-associated fraction.

Sequence of Mac-1 (P05555 17-1153): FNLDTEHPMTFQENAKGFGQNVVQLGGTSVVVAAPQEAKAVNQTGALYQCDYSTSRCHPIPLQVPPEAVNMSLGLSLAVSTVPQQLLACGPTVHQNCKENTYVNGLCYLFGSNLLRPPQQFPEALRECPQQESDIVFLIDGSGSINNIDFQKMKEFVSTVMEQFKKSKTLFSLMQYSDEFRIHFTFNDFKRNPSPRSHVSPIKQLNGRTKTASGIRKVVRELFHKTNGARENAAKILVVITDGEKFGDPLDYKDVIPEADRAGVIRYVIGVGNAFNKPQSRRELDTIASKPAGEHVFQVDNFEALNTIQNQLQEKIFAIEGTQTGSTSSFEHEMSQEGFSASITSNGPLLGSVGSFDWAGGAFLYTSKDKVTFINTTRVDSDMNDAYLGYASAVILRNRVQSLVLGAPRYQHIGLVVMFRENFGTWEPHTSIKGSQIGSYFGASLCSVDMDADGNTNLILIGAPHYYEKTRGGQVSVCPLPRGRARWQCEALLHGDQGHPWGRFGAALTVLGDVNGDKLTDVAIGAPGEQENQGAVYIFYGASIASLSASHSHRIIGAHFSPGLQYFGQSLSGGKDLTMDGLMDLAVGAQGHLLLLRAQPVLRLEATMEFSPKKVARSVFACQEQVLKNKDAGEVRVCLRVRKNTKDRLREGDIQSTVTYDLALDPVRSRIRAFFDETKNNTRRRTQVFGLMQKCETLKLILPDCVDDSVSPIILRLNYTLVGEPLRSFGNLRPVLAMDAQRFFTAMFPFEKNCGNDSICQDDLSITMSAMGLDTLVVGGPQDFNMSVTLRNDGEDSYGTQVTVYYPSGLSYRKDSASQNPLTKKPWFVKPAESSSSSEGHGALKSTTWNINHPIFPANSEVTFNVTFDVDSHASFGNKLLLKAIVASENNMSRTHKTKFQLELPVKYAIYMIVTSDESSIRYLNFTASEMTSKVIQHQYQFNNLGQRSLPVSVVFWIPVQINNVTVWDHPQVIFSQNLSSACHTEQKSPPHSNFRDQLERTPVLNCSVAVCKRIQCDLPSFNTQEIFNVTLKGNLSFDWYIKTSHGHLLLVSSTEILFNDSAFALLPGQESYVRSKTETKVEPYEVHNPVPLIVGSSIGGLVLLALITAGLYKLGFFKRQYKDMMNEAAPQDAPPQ

Substance: methyl-β-cyclodextrin [MBCD]
- CpG-ODN-induced IL-10 mRNA after MBCD treatment (IL-10 mRNA): not increased
- chitin particle-induced IL-10 mRNA expression after MBCD treatment (IL-10 mRNA; 6 h): did not result in IL-10 mRNA expression
- % positive cells in M1, F4/80 (F4/80): 69%
- MFI, F4/80 (F4/80; 2nd antibody control 7.0): 17
- % positive cells in M1, Mac-1 (Mac-1): 81%
- MFI, Mac-1 (Mac-1): 36
- % positive cells in M1, FcγR [1]: 65%
- MFI, FcγR ([1]; 2nd antibody control 7.0): 14
- % positive cells in M1, SR-A [2]: 81%
- MFI, SR-A ([2]; 2nd antibody control 7.0): 32
- MFI, TLR4 [3]: 23
- MFI, MR (mannose receptor (MR)): 73
- effect of MBCD treatment on MØ binding to FITC-chitin particles (RAW 264.7 MØ [4]): not significantly altered
- increase in TNF-α production in response to chitin particles (RAW 264.7 MØ [5]; 20 μg/ml chitin particles): 3 fold
- increase in TNF-α production in response to chitin particles (RAW 264.7 MØ [5]; 100 μg/ml chitin particles): 1.8 fold
- TNF-α production, MBCD alone (RAW 264.7 MØ [5]; 5 mM MBCD): enhanced slightly but significantly
- CpG-ODN-induced COX-2 expression or PGE2 release (COX-2; 1 mM MBCD): did not enhance
- COX-2 expression, MBCD alone (COX-2; 5 mM MBCD): induced
- PGE2 release vs MØ treated with saline (COX-2; 5 mM MBCD): not different
- relative amounts of chitin-associated phosphorylated MAPK, MBCD- vs saline-treated cells (FIG. 14) [6]: greater
